Results from patent US20050209278A1, “Piperidinyl- and piperazinyl-sulfonylmethyl hydroxamic acids and their use as protease inhibitors” (priority 2002, published 2005).
Like-named read-outs stand apart in the source and are kept apart here.

Experiments:
MMP-2 = biological target: T1, MMP-2 (Homo sapiens, UniProt P08253); assay: In vitro MMP inhibition, Ki determination (fluorogenic substrate II); assay type: biochemical; conditions: read-out: MMP-2 Ki
T1 construct: made in house; host or cells: MMP-2-transfected p2AHT2 cells
T1 sequence (P08253 110-660): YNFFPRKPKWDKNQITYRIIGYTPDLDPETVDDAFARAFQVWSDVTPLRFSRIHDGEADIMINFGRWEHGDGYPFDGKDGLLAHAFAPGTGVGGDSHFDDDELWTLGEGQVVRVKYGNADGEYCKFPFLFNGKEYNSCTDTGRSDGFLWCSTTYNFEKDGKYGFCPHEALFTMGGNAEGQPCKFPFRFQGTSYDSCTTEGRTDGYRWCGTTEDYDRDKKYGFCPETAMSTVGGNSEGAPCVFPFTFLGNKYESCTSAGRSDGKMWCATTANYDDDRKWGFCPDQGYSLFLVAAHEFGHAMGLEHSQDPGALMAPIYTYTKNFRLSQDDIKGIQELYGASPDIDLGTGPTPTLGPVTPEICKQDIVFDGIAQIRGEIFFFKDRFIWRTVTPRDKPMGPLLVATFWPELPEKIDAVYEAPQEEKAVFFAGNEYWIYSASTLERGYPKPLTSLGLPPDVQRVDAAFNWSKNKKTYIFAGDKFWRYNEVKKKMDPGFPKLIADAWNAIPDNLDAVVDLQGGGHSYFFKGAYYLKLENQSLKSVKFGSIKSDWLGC

MMP-9 = biological target: T2, MMP-9 (Homo sapiens, UniProt P14780); assay: as above; assay type: biochemical
T2 construct: made in house; host or cells: MMP-9-transfected HT1080 cells (spent media)
T2 sequence (P14780 107-707 limits assumed): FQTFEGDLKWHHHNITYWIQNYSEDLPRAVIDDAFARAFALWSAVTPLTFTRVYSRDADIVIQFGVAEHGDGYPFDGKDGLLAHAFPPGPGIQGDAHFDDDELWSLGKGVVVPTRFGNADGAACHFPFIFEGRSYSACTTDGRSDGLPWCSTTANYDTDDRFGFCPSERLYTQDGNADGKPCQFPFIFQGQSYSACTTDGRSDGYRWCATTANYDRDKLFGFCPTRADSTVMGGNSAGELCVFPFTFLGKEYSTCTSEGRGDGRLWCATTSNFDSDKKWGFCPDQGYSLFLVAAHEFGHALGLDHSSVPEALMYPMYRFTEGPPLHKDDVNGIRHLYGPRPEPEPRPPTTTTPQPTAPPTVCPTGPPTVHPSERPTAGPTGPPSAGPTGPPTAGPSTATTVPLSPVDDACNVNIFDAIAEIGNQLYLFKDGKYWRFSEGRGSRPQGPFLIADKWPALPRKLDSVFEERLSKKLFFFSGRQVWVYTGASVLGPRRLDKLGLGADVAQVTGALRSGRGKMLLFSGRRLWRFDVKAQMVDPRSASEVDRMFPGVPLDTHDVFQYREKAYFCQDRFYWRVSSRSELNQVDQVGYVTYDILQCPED
Method in brief: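 HT1080-derived MMP-9, activated with APMA, trypsin or MMP-3, incubated 1 hr at room temperature with inhibitor and 4 μM fluorogenic substrate II (at or below Km) in pH 7.5 Tris/NaCl/CaCl2 buffer; ex 330/em 420 nm. Ki from Morrison-equation regression, without substrate correction.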

Compound	Ki (MMP-2; value outside parentheses) [nM]	Ki (MMP-9; value outside parentheses) [nM]	Ki (MMP-2; value not in parenthesis) [nM]	Ki (MMP-9; value not in parenthesis) [nM]
CCCCOc1ccc(N2CCN(S(=O)(=O)C3(C(=O)NO)CCN(Cc4ccco4)CC3)CC2)cc1 [Example 252]	1.38	1.43	–	–
COCCN1CCC(C(=O)NO)(S(=O)(=O)N2CCC(c3ccc(CCCC(F)(F)F)cc3)CC2)CC1 [Example 310]	0.919	0.346	–	–
CCCCOc1ccc(N2CCN(S(=O)(=O)C3(C(=O)NO)CCNCC3)CC2)cc1 [Example 276]	5.7	9.39	–	–
CCCCOc1ccc(N2CCN(S(=O)(=O)C3(C(=O)NO)CCN(C(=O)COC)CC3)CC2)cc1 [Example 268]	0.564	1.08	–	–
CCCCOc1ccc(N2CCN(S(=O)(=O)C3(C(=O)NO)CCN(C(=O)CCCC)CC3)CC2)cc1 [Example 278]	0.81	2	–	–
Cc1cc(N2CCN(S(=O)(=O)C3(C(=O)NO)CCOCC3)CC2)ccc1OC(C)C [Example 299]	22.5	43.6	–	–
CCCCOc1ccc(N2CCN(S(=O)(=O)C3(C(=O)NO)CCN(C(C)=O)CC3)CC2)cc1 [Example 282]	0.5	0.098	–	–
CCCCc1ccc(N2CCN(S(=O)(=O)C3(C(=O)NO)CCN(c4ncccn4)CC3)CC2)nc1 [Example 99]	–	–	0.17	0.16
CCCCOc1ccc(N2CCN(S(=O)(=O)C3(C(=O)NO)CCN(C(=O)C(C)C)CC3)CC2)cc1 [Example 273]	0.622	1.21	–	–
COCCN1CCC(C(=O)NO)(S(=O)(=O)N2CCC(c3ncc(CC(C)C)s3)CC2)CC1 [Example 311]	103	35.7	–	–
CCCCOc1ccc(N2CCN(S(=O)(=O)C3(C(=O)NO)CCN(C(=O)C4CC4)CC3)CC2)cc1 [Example 260]	0.467	0.946	–	–
COCCOc1ccc(N2CCN(S(=O)(=O)C3(C(=O)NO)CCN(C4CC4)CC3)CC2)cc1F [Example 297]	1.36	19.5	–	–
CCCCOc1ccc(N2CCN(S(=O)(=O)C3(C(=O)NO)CCN(C(C)(C)C)CC3)CC2)c(F)c1 [Example 84]	–	–	7.53	17.9
CCCCOc1ccc(N2CCN(S(=O)(=O)C3(C(=O)NO)CCN(c4ccc(O)nn4)CC3)CC2)cc1 [Example 283]	0.37	0.69	–	–
O=C(NO)C1(S(=O)(=O)N2CCN(c3ccc(-c4ccccc4)cc3)CC2)CCOCC1 [Example 76]	–	–	0.19	0.5
CCCCCc1ccc(N2CCN(S(=O)(=O)C3(C(=O)NO)CCN(C4CC4)CC3)CC2)cc1 [Example 272]	0.662	0.542	–	–
CCCCOc1ccc(N2CCN(S(=O)(=O)C3(C(=O)NO)CCN(CC4CC4)CC3)CC2)cc1 [Example 298]	3.27	2.99	–	–

Compound	Ki (MMP-2; value outside parentheses) [nM]	Ki (MMP-9; value outside parentheses) [nM]	Ki (MMP-2; value not in parenthesis) [nM]	Ki (MMP-9; value not in parenthesis) [nM]
C#CCOC(=O)N1CCC(C(=O)NO)(S(=O)(=O)N2CCN(c3ccc(OCCCC)cc3)CC2)CC1 [Example 98]	–	–	0.5	1.24
O=C(NO)C1(S(=O)(=O)N2CCN(c3ccc(OCCCC(F)(F)F)cn3)CC2)CCOCC1 [Example 83]	–	–	0.251	4.21
COCCN1CCC(C(=O)NO)(S(=O)(=O)N2CCN(c3ccc(OCCCCF)cc3)CC2)CC1 [Example 88]	–	–	0.54	2.18
CCN1CCC(C(=O)NO)(S(=O)(=O)N2CCN(c3ccc(OCCCC(F)(F)F)cc3)CC2)CC1 [Example 78]	–	–	2.56	22.8
CCCCOc1ccc(N2CCN(S(=O)(=O)C3(C(=O)NO)CCN(C(=O)CC(F)(F)F)CC3)CC2)cc1 [Example 265]	0.878	2.14	–	–
CCCCOc1ccc(N2CCN(S(=O)(=O)C3(C(=O)NO)CCOCC3)CC2)c(F)c1 [Example 90]	–	–	1.68	2.15
CCCCOc1ccc(N2CCN(S(=O)(=O)C3(C(=O)NO)CCN(c4ccc(C)nn4)CC3)CC2)cc1 [Example 275]	0.381	0.807	–	–
O=C(NO)C1(S(=O)(=O)N2CCN(c3ccc(OCCCC(F)(F)F)cc3F)CC2)CCOCC1 [Example 81]	–	–	0.407	29.2
CCCCOc1ccc(N2CCN(S(=O)(=O)C3(C(=O)NO)CCN(C)CC3)CC2)cc1 [Example 280]	2.76	3.61	–	–
O=C(NO)C1(S(=O)(=O)N2CCN(c3ccc(CCC(F)(F)F)cc3)CC2)CCOCC1 [Example 77]	–	–	0.38	0.8
CCCCOc1ccc(N2CCN(S(=O)(=O)C3(C(=O)NO)CCN(C(=O)CC)CC3)CC2)cc1 [Example 274]	0.826	1.66	–	–
CCCCc1ccc(N2CCN(S(=O)(=O)C3(C(=O)NO)CCOCC3)CC2)c(F)c1 [Example 91]	–	–	1.22	0.452
CCCCOc1ccc(N2CCN(S(=O)(=O)C3(C(=O)NO)CCN(C(=O)c4ccccc4)CC3)CC2)cc1 [Example 255]	0.858	2.54	–	–
O=C(NO)C1(S(=O)(=O)N2CCN(c3ccc(COCC(F)(F)C(F)F)cc3)CC2)CCOCC1 [Example 71]	–	–	2.35	13
CC(C)COc1ccc(N2CCN(S(=O)(=O)C3(C(=O)NO)CCOCC3)CC2)cc1Cl [Example 79]	–	–	10.1	41.5
CCCCCc1ccc(C2CCN(S(=O)(=O)C3(C(=O)NO)CCOCC3)CC2)nc1 [Example 305]	0.407	0.133	–	–
